# Assay results taken from US20140088069A1, “NOVEL ANTIBACTERIAL COMBINATION THERAPY” (priority 2011, published 2014).
# Like-named read-outs stand apart in the source and are kept apart here.
# Tests used:
# [1] = tested on: RN4220; assay: Checkerboard (FIC) analysis, RN4220; assay type: cell-based, Staphylococcus aureus
# Protocol: (§3) Here a matrix of drug concentrations were tested in combinations at the concentrations shown (μg/mL). […] FIC index is a measure of synergy and is calculated as follows: FIC index=FIC (cefuroxime)+FIC (drug compound).
# [2] = tested on: HA-MRSA USA100/800/NY; assay: Checkerboard (FIC) analysis, HA-MRSA USA100/800/NY; assay type: cell-based, Staphylococcus aureus
# [3] = tested on: HA-MRSA; assay: Checkerboard (FIC) analysis, HA-MRSA (Table 1 r10); assay type: cell-based, Staphylococcus aureus; conditions: HA-MRSA (Table 1 r10)
# [4] = tested on: MRSA; assay: Analogues in combination with cefuroxime against MRSA (FIC index); assay type: cell-based, Staphylococcus aureus; conditions: compound in combination with cefuroxime; MRSA (Table 5)
# Protocol: A series of analogues were synthesized (as shown in Table 5) in which the thienopyridine ring was removed.
# These were tested in combination with cefuroxime against MRSA and results are shown below (Table 6).
# [5] = tested on: CA-MRSA USA400/MW2; assay: Checkerboard (FIC) analysis, CA-MRSA USA400/MW2; assay type: cell-based, Staphylococcus aureus
# [6] = tested on: S. aureus strains
# Protocol: (§1) Here a matrix of drug concentrations were tested in combinations at the concentrations shown (μg/mL). Greyscale indicates growth—darker is more growth, lighter is less growth. FIC index is a measure of synergy and is calculated as follows: FIC index=FIC (cefuroxime)+FIC (drug compound).
# (§2) The combination of ticlopidine and cefuroxime was further tested as above against a variety of S. aureus strains as shown in Table 1 below.
# [7] = tested on: HA-MRSA; assay: Checkerboard (FIC) analysis, HA-MRSA (Table 1 r13); assay type: cell-based, Staphylococcus aureus; conditions: HA-MRSA (Table 1 r13)
# Protocol: as §3
# [8] = tested on: HA-MRSA; assay: Checkerboard (FIC) analysis, HA-MRSA (Table 1 r16); assay type: cell-based, Staphylococcus aureus; conditions: HA-MRSA (Table 1 r16)
# [9] = tested on: HA-MRSA USA500; assay: Checkerboard (FIC) analysis, HA-MRSA USA500; assay type: cell-based, Staphylococcus aureus
# [10] = tested on: SA178R1; assay: Checkerboard (FIC) analysis, SA178R1; assay type: cell-based, Staphylococcus aureus
# [11] = tested on: HA-MRSA USA600; assay: Checkerboard (FIC) analysis, HA-MRSA USA600; assay type: cell-based, Staphylococcus aureus
# [12] = tested on: HA-MRSA USA200/EMRSA16; assay: Checkerboard (FIC) analysis, HA-MRSA USA200/EMRSA16; assay type: cell-based, Staphylococcus aureus
# [13] = tested on: HA-MRSA EMRSA15; assay: Checkerboard (FIC) analysis, HA-MRSA EMRSA15; assay type: cell-based, Staphylococcus aureus
# [14] = tested on: S. aureus (Newman strain); assay: Checkerboard (FIC) analysis against S. aureus Newman; assay type: cell-based, Staphylococcus aureus; conditions: Newman
# [15] = tested on: CA-MRSA USA300; assay: Checkerboard (FIC) analysis against CA-MRSA USA300; assay type: cell-based, Staphylococcus aureus; conditions: for MIC: Staphylococcus aureus
# Protocol: as §1, §2
# FIC index=FIC (β-lactam)+FTC (ticlopidine). […]
# [16] = Staphylococcus aureus, ticlopidine alone, read-out: MIC ticlopidine
structure (smiles),measurement,setting,value
"Clc1ccccc1CN1CCc2sccc2C1 [Compound 1, 5-(2-Chloro-benzyl)-4,5,6,7-tetrahydro-thieno[3,2-c]pyridine]",MIC,"[1]; Staphylococcus aureus, ticlopidine alone",> 128 µg/mL
same,FIC ticlopidine,[1]; in the presence of cefuroxime,1
same,FIC index,[1]; ticlopidine + cefuroxime,≦2
same,MIC,[2]; [16],> 256 µg/mL
same,FIC ticlopidine,[2]; in the presence of cefuroxime,0.125
same,FIC index,[2]; ticlopidine + cefuroxime,≦0.250
same,FIC ticlopidine,[3]; in the presence of cefuroxime,0.032
same,FIC index,[3]; ticlopidine + cefuroxime,≦0.282
same,MIC,[3]; [16],> 256 µg/mL
same,FIC index,[4],≦0.125
same,MIC,[5]; [16],> 256 µg/mL
same,FIC ticlopidine,[5]; in the presence of cefuroxime,0.063
same,FIC index,[5]; ticlopidine + cefuroxime,≦0.125
same,methicillin-resistant strains (Canadian MRSA collection) in which potent synergy was retained,"[6]; ticlopidine + cefuroxime, including USA300",7 of 10
same,antibacterial activity alone,[6]; ticlopidine alone against the S. aureus strains of Table 1,no antibacterial activity alone
same,potentiation of the activity of the β-lactams,"[6]; ticlopidine in combination with a β-lactam, even in β-lactam-resistant S. aureus",over 32 fold
same,FIC ticlopidine,[7]; in the presence of cefuroxime,0.016
same,FIC index,[7]; ticlopidine + cefuroxime,≦0.266
same,MIC,[7]; [16],> 256 µg/mL
same,FIC ticlopidine,[8]; in the presence of cefuroxime,0.063
same,FIC index,[8]; ticlopidine + cefuroxime,≦0.188
same,MIC,[8]; [16],> 256 µg/mL
same,MIC,[9]; [16],> 256 µg/mL
same,FIC ticlopidine,[9]; in the presence of cefuroxime,1
same,FIC index,[9]; ticlopidine + cefuroxime,≦2
same,MIC,[10]; [16],> 128 µg/mL
same,FIC ticlopidine,[10]; in the presence of cefuroxime,1
same,FIC index,[10]; ticlopidine + cefuroxime,≦2
same,MIC,[11]; [16],> 256 µg/mL
same,FIC ticlopidine,[11]; in the presence of cefuroxime,0.032
same,FIC index,[11]; ticlopidine + cefuroxime,≦0.040
same,MIC,[12]; [16],> 256 µg/mL
same,FIC ticlopidine,[12]; in the presence of cefuroxime,0.063
same,FIC index,[12]; ticlopidine + cefuroxime,≦0.095
same,MIC,[13]; [16],> 256 µg/mL
same,FIC ticlopidine,[13]; in the presence of cefuroxime,0.063
same,FIC index,[13]; ticlopidine + cefuroxime,≦0.125
same,FIC ticlopidine,[14]; in the presence of cefuroxime,0.125
same,FIC index,[14]; ticlopidine + cefuroxime,≦0.250
same,MIC,[14]; [16],> 256 µg/mL
same,FIC ticlopidine,"[15]; CA-MRSA USA300 (Table 1), in the presence of cefuroxime",0.032
same,FIC index,"[15]; CA-MRSA USA300 (Table 1), ticlopidine + cefuroxime",≦0.063
same,MIC,"[15]; CA-MRSA USA300 (Table 1), ticlopidine alone, read-out: MIC ticlopidine",> 256 µg/mL
same,MIC,"[15]; thienopyridine alone, CA-MRSA USA300 (Table 4), read-out: MIC thienopyridine",> 128 µg/mL
same,drug-drug interaction with cefuroxime (checkerboard secondary screen),[15]; in combination with cefuroxime,synergistic interactions
same,FIC thienopyridine,"[15]; in the presence of cefuroxime, CA-MRSA USA300 (Table 4)",0.13
same,FIC index,"[15]; thienopyridine in combination with cefuroxime, CA-MRSA USA300 (Table 4)",≦0.16
same,FIC index,"[15]; ticlopidine in combination with cefuroxime, CA-MRSA USA 300, FIG. 2",≤ 0.12
